The source of these data is patent US20180353524A1, “CANCER TREATMENT USING 2-DEOXY-2-FLUORO-L-FUCOSE IN COMBINATION WITH A CHECKPOINT INHIBITOR” (SEATTLE GENETICS, INC., priority 2015, published 2018).

The subject of one assay is CMV reactive human PMBCs. Description: In vitro 2FF and anti-PD1 antibody combination in human PBMCs (IFNγ, IL12p70). The conditions noted are these: T-cells matured with 100-200 μM 2FF, co-culture with DCs, 5 μg/mL CMV antigen.
The next assay relates to A20 tumor cells. Description: A20 mouse lymphoma study, survival. Type of assay: in vivo, BALB/c mice. The procedure:
A20 cells (ATCC) were cultured in RPMI 1640 with 10% FBS, 10 mM HEPES, 1 mM sodium pyruvate, 50 μM 2-mercaptoethanol and penicillin (100 U/ml)/streptomycin (100 μg/ml) (PS). All mice (BALB/c, n=6/group) were implanted with 1×10^5 A20 tumor cells (i.v.) and were divided into four groups: untreated; treated with 2FF only; treated with anti-PD1 antibody only; and treated with a combination of 2FF with anti-PD1 antibody. 2FF treatment groups received drinking water containing 20 mM 2FF beginning on the day of tumor implantand continued throughout the study. Mice not receiving 2FF were provided with normal drinking water. Anti-PD1 antibody (Ebiosciences, clone J43) treatment groups received three doses of 5 mg/kg every three days starting on day 5 post tumor implant. […] This is compared to only 17% survival in the untreated and the anti-PD1 alone treated groups after about 40 days of treatment lasting to the end of the experiment, and also compared to only 17% survival in 2FF alone treated group after 70 days of treatment also lasting to the end of the experiment at ˜90 days.

In a further assay the test system is A20 tumor vaccine model. Description: Serum cytokines in A20 vaccine model. In kind it is in vivo. To be noted: BALB/c mice, with KLH-Idiotype vaccine vs KLH-Idiotype alone, no depletion. The procedure:
KLH-A20 Id Fab was generated as described in Okeley et al PNAS 2012. A20 cells (ATCC) were cultured in RPMI 1640 with 10% FBS, 10 mM HEPES, 1 mM sodium pyruvate, 50 μM 2-mercaptoethanol and penicillin (100 U/ml)/streptomycin (100 μg/ml) (PS) Immunization groups (BALB/c, Harlan) were injected subcutaneously with the KLH-Fab conjugate (50 μg) with TiterMax adjuvant (1:1) on day-21 with a boost on day-7. 2-deoxy-2-fluoro-L-fucose treatment groups received drinking water containing 20 mM 2-deoxy-2-fluoro-L-fucose beginning on day -14. One week after the second vaccination (day 0), all mice received 2.5×10^6 A20 tumor cells (i.v.). 2-deoxy-2-fluoro-L-fucose treatment was continued until day 21 followed by normal drinking water. Depletion of immune cells was accomplished with depleting antibodies administered on days-6, -5, -4, 0 and +7 (200 μg/mouse i.p.). CD4 or CD8 T-cells depletion by anti-CD4 (GK1.5) or -CD8 (53-6.72) antibody was verified in blood at day-1, 7, 14, 21, 29 (FACS analysis). […] Thus CD4 and CD8 T-cells play a role in the combination activity.
Tissue culture supernatants from T-cell/DC co-cultures described previously were collected and assessed for cytokine changes by Luminex assay. Similarly, blood samples from an A20 vaccine model study were allowed to clot and serum was collected for analysis of cytokines (MCYTOMAG01L1X-13 Mouse Cytokine Magnetic Bead Panel, Millipore).

Method for CMV reactive human PMBCs: CMV reactive human PMBCs from a CMV positive donor (Astarte™ Biologics) were thawed, plated into a 6-well plate and cultured overnight in DC media (30% DMEM 70% X-vivo+2 mM glutamax+10% ATB serum+1% PS). The following day the supernatant was collected to isolate T-cells and the adhering cells were washed in media and then replenished with 2 mL media supplemented with IL4 (100 ng/μL) and GMCSF (200 ng/μL) per well to differentiate and proliferate the adhering monocytes into DCs. The plate was incubated for 4-5 days and then cells were moved into a T25 flask. Each time the cells were passaged (every 2-3 days) new cytokines were given. The T-cells in the supernatant were isolated using StemSep human T-cell enrichment kit (Stemcell technologies). The T-cells were then resuspended in T-cell media (RPMI+10% Fetal calf serum, 1% PS) and spilt into two T25 flasks (with or without 100-200 μM 2FF). CD3CD28 antibody coated beads (Miltenyi Biotec) (20 μL/flask) were added to activate the T-cells. After 24 h IL2 was added (100 ng/μL). Each time the cells were passaged new IL2 and 2FF were added. […]
IFNγ and IL12p70 in the supernatants from 5 day co-cultures were measured using a Lumenix assay and the concentration of each cytokine was calculated using an internal standard curve.

As for `C[C@@H]1OC(O)[C@@H](F)[C@H](O)[C@@H]1O` (stereo partly drawn) [2-deoxy-2-fluoro-L-fucose], the “antigen specific T cell response (IFNγ, IL12p70) of 2FF matured T-cells vs control cell” value in the assay with CMV reactive human PMBCs is on record as “elevated antigen specific T cell response”. The “survival compared to the untreated group” value in the assay with A20 tumor cells (BALB/c mice, i.v. A20 cells, 20 mM 2FF in drinking water, anti-PD1 5 mg/kg q3dx3 from day 5) was “increased survival compared to the untreated group”. In addition, the “survival of the mice” value with A20 tumor cells (after 70 days of treatment lasting to end of experiment at ~90 days, 20 mM 2FF drinking water) amounted to 17%. In addition, the “serum cytokines important for immune responses (IL15) in A20 tumor vaccine model” value in the assay on A20 tumor vaccine model was “specific increases in cytokines”.
